One assay deals with T1, GST-free Syk(6-370) (Homo sapiens, UniProt P43405).
T1 construct: Syk 6-370 (GST tag removed by thrombin cleavage) was used; GST (N, cleaved yes); made in house; host or cells: E. coli BL21(DE3)
As to the kind of experiment: Thermal denaturation assay (SYPRO orange). Type of assay: binding. Particulars: Syk(6-370) 2 µM, dose-dependent. As for the experimental part: In this assay, Syk 6-370 (GST tag removed by thrombin cleavage) was used. Thrombin (GE Healthcare cat#270846, reconstituted in PBS to 1 unit/ul) was applied to the GST-Syk 6-370 protein bound to the Glutathione Sepharose beads. The GST-tag was cleaved with 20 unit/1 ml of protein-GST beads in PBS overnight at room temperature. After chromatography and additional cleaning on GST-beads, the purified protein was verified by SDS-PAGE. For thermal denaturation experiments, GST-free Syk(6-370) was used at a final concentration of 2 µM and SYPRO orange (Thermo Scientific, cat# S6650) at a 0.08% (v/v) dilution (from a 5000x stock). Compounds were used at indicated concentrations. Numerous reaction buffers were initially screened, and a final buffer containing 25 mM HEPES (pH 7.5) with 100 mM NaCl was used. Assays were performed in 20 µl volumes, in triplicate, in 384-well plates (Applied Biosystems MicroAmp 384-well clear optical reaction plate, catalogue #4483285). Plates were sealed with Applied Biosystems Optical Adhesive Cover (cat#4360954) and centrifuged for 2 min at 800 × g at room temperature. Thermal denaturation was measured on a Quant Studio 6 Flex Real-time PCR system (Applied Biosystems). […]

Assay [1] relates to Pyk-2 phosphorylation in THP-1 cells. Briefly: Integrin α4β1-induced phosphorylation of Pyk-2 in THP-1 cells plated on CS-1. Type of assay: cell-based, human. The settings on record: 100 µM loaded by glycerol shock. As for the experimental part: Syk phosphorylation assays were performed by immobilizing vascular cell adhesion molecule-1 (VCAM)-1 (3 ug/ml), CS-1-BSA (10 ug/ml), or specific monoclonal antibodies (anti-FcγRI mAb 276426, anti-α4β1 mAb 19H8, anti-β2 mAb 76C3, anti-αvβ3 mAb LM609 all at 5 ug/ml) overnight at 4°C in Tris-HCl pH 7.5, 150 mM NaCl, in 6-well plates (non-tissue culture treated, Becton Dickenson, cat# BD351146). Plates were then blocked with BSA (2% w/v) for 1 h at room temperature. […] After electrophoresis, proteins were transferred to nitrocellulose for 1 h 100 V room temperature, blocked in 5% non-fat milk in TBS-T, and probed with the indicated primary antibody at 1:1,000 overnight at 4°C, followed by species-appropriate HRP secondary antibody (Southern Biotech) at 1:5,000 (30 min at room temperature), and detected using Pierce West Pico (Thermo Scientific cat# 34580). […]
Figure 6 Selective inhibition of integrin signaling by ceftazidime. […] Data are expressed as mean ± range from duplicate determinations. […] Kinase activity is expressed as percent of maximum signal. Data are expressed as mean ± SEM (n = 3). **p < 0.01 (D) Selective effects of ceftazidime on integrin signaling. […] Phosphorylation of Syk (left and right panel) and Pyk-2 (center panel) was analyzed by immunoprecipitation and western blot. […] Results are expressed as the mean ± SEM. […]

Experimental findings from paper PMC7819857, “Identification of Inhibitors of Integrin Cytoplasmic Domain Interactions With Syk” (Frontiers in Immunology, 2021) are described below.

With `CC(C)(O/N=C(\C(=O)N[C@@H]1C(=O)N2C(C(=O)[O-])=C(C[n+]3ccccc3)CS[C@H]12)c1csc(N)n1)C(=O)O` [ceftazidime], the “effect on melting temperature (Tm) of Syk(6-370)” value on GST-free Syk(6-370) was “decreased”. Further, the “integrin α4β1 induced phosphorylation of Pyk-2” value in assay [1] was “inhibited”.
